Test results published in PMC8308777, “Small Molecule–Peptide Conjugates as Dimerization Inhibitors of Leishmania infantum Trypanothione Disulfide Reductase” (Pharmaceuticals, 2021).
Like-named read-outs stand apart in the source and are kept apart here.

What was measured:
[1] = biological target: T1, Leishmania infantum trypanothione disulfide reductase (LiTryR) (Leishmania infantum, UniProt A4HSF7); assay: LiTryR oxidoreductase activity assay (DTNB-coupled); type: biochemical; conditions: no preincubation; for IC50: modified DTNB-coupled assay, 26 °C, HEPES pH 7.5, HIS-LiTryR 7 nM, TS2 1 μM, NADPH 150 μM, inhibitor 0.1-25 μM, IC50 ± SE, three independent experiments in triplicate, read-out: IC50act, LiTryR oxidoreductase activity
T1 construct: HIS; made in house; host or cells: E. coli BL21 (DE3) Rossetta 2
Method: LiTryR oxidoreductase activity was assessed spectrophotometrically using a modified version of the DTNB-coupled assay, described by Hamilton et al.. Briefly, reactions were performed at 26 °C in 250 μL of HEPES buffer (pH 7.5, 40 mM) containing EDTA (1 mM), NADP^+ (30 μM), DTNB (25 μM), TS2 (1 μM), NADPH (150 μM), glycerol (0.02%), DMSO (1.75%), and recombinant HIS-LiTryR (7 nM). […] Reactions were started by addition of a mixture (50 μL/well) of the substrates (NADPH and TS2).
LiTryR oxidoreductase activity was monitored at 26 °C by an increase in absorbance at 412 nm in an EnSpire Multimode Plate Reader (PerkinElmer, Waltham, MA, USA). In this DTNB-coupled assay, one molecule of T(SH)2 reduces one molecule of DTNB, producing two TNB molecules. The TNB concentration was obtained by multiplying the absorbance values by 100 (50 μM TNB generates 0.5 arbitrary units of absorbance at 412 nm).
For IC50 determinations, the initial velocities were calculated from the slope of the initial linear part of the reaction curves. The initial velocities of the reaction progress curves in the presence of inhibitor (concentrations ranging from 0.1 to 25 μM) were normalized as a percentage with respect to the initial velocity in the presence of the inhibitor vehicle (DMSO). IC50 values were obtained by fitting these percentages to a nonlinear regression model with GraFit 6 software (Erithacus, Horley, Surrey, U.K.). All the assays were performed in triplicate.

[2] = biological target: T2, HIS-FLAG-tagged LiTryR dimer (Leishmania infantum, UniProt A4HSF7); assay: LiTryR dimer quantitation assay (ELISA); type: biochemical; conditions: 16 h at 37 °C; for IC50: HIS-FLAG-LiTryR 400 nM, Tris pH 8.0, 300 mM NaCl, compounds 25 to 3.1 μM, IC50 ± SE, three independent experiments in triplicate, read-out: IC50dim, LiTryR dimer quantitation
T2 construct: made in house; host or cells: E. coli BL21 (DE3) Rossetta 2
Method: The relative amount of the LiTryR dimeric form in the presence of the SMPCs was assessed using an enzyme-linked immunosorbent assay (ELISA), developed in our laboratory. Briefly, HIS-FLAG-tagged LiTryR (400 nM) was incubated in dimerization buffer (1 mL of 50 mM Tris pH 8.0 and 300 mM NaCl) for 16 h at 37 °C with vigorous shaking and in a humid atmosphere in the presence of the different compounds ranging from 25 to 3.1 μM. Following a 15 min centrifugation at 18,000× g and room temperature, the supernatants were added to the α-FLAG-coated plates (200 μL/well) and incubated for 30 min at 37 °C with vigorous shaking in a humid atmosphere. The plates were washed five times with TTBS buffer (2 mM Tris pH 7.6, 138 mM NaCl, and 0.1% Tween-20) and incubated with diluted monoclonal α-HIS horseradish peroxidase (HRP)-conjugated antibody (200 μL/well, 1:50,000, Abcam, Cambridge, UK) in fatty acid- and essentially globulin-free bovine serum albumin (5%) prepared in TTBS buffer for 1 h at room temperature. The plates were washed again five times and the o-phenylenediamine dihydrochloride substrate, prepared according to the manufacturer’s instructions, was added (100 μL/well). The enzymatic reactions were stopped after 5 min by addition of […] (100 μL/well) and the absorbances were measured at 490 nm in an EnSpire Multimode Plate Reader (PerkinElmer, Waltham, MA, USA).
For IC50 determinations, the absorbance values in the presence of different concentrations of inhibitor were normalized as a percentage with respect to the absorbance value in the presence of DMSO. The IC50 values were obtained by fitting these percentages to a nonlinear regression model with GraFit 6 software (Erithacus, Horley, Surrey, U.K.). The assays were carried out in triplicate and repeated three times.

[3] = qualitative, attributed to increased hydrophobicity of the adamantyl substituent

T2 sequence (A4HSF7 entry or part of it): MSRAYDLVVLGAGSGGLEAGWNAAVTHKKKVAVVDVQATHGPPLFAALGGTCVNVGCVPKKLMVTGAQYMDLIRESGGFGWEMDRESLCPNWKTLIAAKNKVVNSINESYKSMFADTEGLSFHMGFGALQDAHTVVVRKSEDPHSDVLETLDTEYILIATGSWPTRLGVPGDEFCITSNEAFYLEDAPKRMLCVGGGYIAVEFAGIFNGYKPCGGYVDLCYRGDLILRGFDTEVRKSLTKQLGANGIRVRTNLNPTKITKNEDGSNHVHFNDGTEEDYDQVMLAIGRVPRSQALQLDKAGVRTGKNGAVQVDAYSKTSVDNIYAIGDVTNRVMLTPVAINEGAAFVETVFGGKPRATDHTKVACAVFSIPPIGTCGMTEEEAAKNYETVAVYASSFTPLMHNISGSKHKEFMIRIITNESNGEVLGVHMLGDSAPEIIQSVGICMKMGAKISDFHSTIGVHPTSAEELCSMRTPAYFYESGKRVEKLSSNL
T1 sequence (A4HSF7 entry or part of it): as above

Structure (SMILES)	IC50 ([1]; SEM) [µM]	IC50 ([2]; SEM) [µM]	other results
CC[C@H](C)[C@H](NC(=O)CNC(=O)[C@@H](NC(=O)[C@H](CO)NC(=O)[C@H](CCC(N)=O)NC(=O)[C@@H](NC(=O)[C@@H](NC(=O)[C@H](CCCCN)NC(=O)[C@@H]1CCCN1C(=O)COCCOCCN(Cc1ccccc1)Cc1ccccc1)[C@@H](C)CC)[C@@H](C)CC)C(C)C)C(N)=O [compound 8, (Ph-CH2)2N-(CH2)2-O-(CH2)2-O-CH2-CO-NH-PKIIQSVGI-NH2]	9.8 ± 2.3	7.1 ± 0.5	
CC[C@H](C)[C@H](NC(=O)CNC(=O)[C@@H](NC(=O)[C@H](CO)NC(=O)[C@H](CCC(N)=O)NC(=O)[C@@H](NC(=O)[C@@H](NC(=O)[C@H](CCCCN)NC(=O)[C@@H]1CCCN1C(=O)COCCOCCNC(=O)Cc1ccc2ccccc2c1)[C@@H](C)CC)[C@@H](C)CC)C(C)C)C(N)=O [1b, Naphthyl-CH2-CO-NH-(CH2)2-O-(CH2)2-O-CH2-CO-NH-PKIIQSVGI-NH2]	18.2 ± 1	8.7 ± 0.5	
CC[C@H](C)[C@H](NC(=O)CNC(=O)[C@@H](NC(=O)[C@H](CO)NC(=O)[C@H](CCC(N)=O)NC(=O)[C@@H](NC(=O)[C@@H](NC(=O)[C@H](CCCCN)NC(=O)[C@@H]1CCCN1C(=O)CN1C(=O)c2cccc3cccc1c23)[C@@H](C)CC)[C@@H](C)CC)C(C)C)C(N)=O [4d]	8 ± 1.5	7.1 ± 0.2	
CC[C@H](C)[C@H](NC(=O)CNC(=O)[C@@H](NC(=O)[C@H](CO)NC(=O)[C@H](CCC(N)=O)NC(=O)[C@@H](NC(=O)[C@@H](NC(=O)[C@H](CCCCN)NC(=O)[C@@H]1CCCN1C(=O)COCCOCC[N+](C)(C)Cc1ccccc1)[C@@H](C)CC)[C@@H](C)CC)C(C)C)C(N)=O [compound 9, (Ph-CH2)(Me)2N^+-(CH2)2-O-(CH2)2-O-CH2-CO-NH-PKIIQSVGI-NH2 I^−]	18.3 ± 2.6		IC50 [2]: > 25 µM; LiTryR dimer at 25 μM (%) [2]: 53.3%
CC[C@H](C)[C@H](NC(=O)CNC(=O)[C@@H](NC(=O)[C@H](CO)NC(=O)[C@H](CCC(N)=O)NC(=O)[C@@H](NC(=O)[C@@H](NC(=O)[C@H](CCCCN)NC(=O)[C@@H]1CCCN1C(=O)COCCOCCNC(=O)CN1C(=O)c2cccc3cccc1c23)[C@@H](C)CC)[C@@H](C)CC)C(C)C)C(N)=O [1d]	6.7 ± 0.4	7.8 ± 0.1	
CC[C@H](C)[C@H](NC(=O)CNC(=O)[C@@H](NC(=O)[C@H](CO)NC(=O)[C@H](CCC(N)=O)NC(=O)[C@@H](NC(=O)[C@@H](NC(=O)[C@H](CCCCN)NC(=O)[C@@H]1CCCN1C(=O)COCCNC(=O)CN1C(=O)c2cccc3cccc1c23)[C@@H](C)CC)[C@@H](C)CC)C(C)C)C(N)=O [2d]	6.9 ± 1.9	7.1 ± 0.1	
CC[C@H](C)[C@H](NC(=O)CNC(=O)[C@@H](NC(=O)[C@H](CO)NC(=O)[C@H](CCC(N)=O)NC(=O)[C@@H](NC(=O)[C@@H](NC(=O)[C@H](CCCCN)NC(=O)[C@@H]1CCCN1C(=O)COCCOCC[N+](C)(Cc1ccccc1)Cc1ccccc1)[C@@H](C)CC)[C@@H](C)CC)C(C)C)C(N)=O [compound 10, (Ph-CH2)2(Me)N^+-(CH2)2-O-(CH2)2-O-CH2-CO-NH-PKIIQSVGI-NH2 I^−]	9.2 ± 1.1	21.2 ± 3.5	
CC[C@H](C)[C@H](NC(=O)CNC(=O)[C@@H](NC(=O)[C@H](CO)NC(=O)[C@H](CCC(N)=O)NC(=O)[C@@H](NC(=O)[C@@H](NC(=O)[C@H](CCCCN)NC(=O)[C@@H]1CCCN1C(=O)COCCOCCNC(=O)CC12CC3CC(CC(C3)C1)C2)[C@@H](C)CC)[C@@H](C)CC)C(C)C)C(N)=O [1f, Adamantyl-CH2-CO-NH-(CH2)2-O-(CH2)2-O-CH2-CO-NH-PKIIQSVGI-NH2]	7.6 ± 1.2	8.1 ± 0.2	solubility [3]: decrease in solubility
CC[C@H](C)[C@H](NC(=O)CNC(=O)[C@@H](NC(=O)[C@H](CO)NC(=O)[C@H](CCC(N)=O)NC(=O)[C@@H](NC(=O)[C@@H](NC(=O)[C@H](CCCCN)NC(=O)[C@@H]1CCCN1C(=O)COCCOCCNC(=O)Cc1ccccc1)[C@@H](C)CC)[C@@H](C)CC)C(C)C)C(N)=O [1a, Ph-CH2-CO-NH-(CH2)2-O-(CH2)2-O-CH2-CO-NH-PKIIQSVGI-NH2]	22 ± 0.7	9.4 ± 0.1	
CC[C@H](C)[C@H](NC(=O)CNC(=O)[C@@H](NC(=O)[C@H](CO)NC(=O)[C@H](CCC(N)=O)NC(=O)[C@@H](NC(=O)[C@@H](NC(=O)[C@H](CCCCN)NC(=O)[C@@H]1CCCN1C(C)=O)[C@@H](C)CC)[C@@H](C)CC)C(C)C)C(N)=O [TRL38, Ac-PKIIQSVGI-NH2, reference compound]			LiTryR oxidoreductase activity at 25 μM (%) ([1]; at 25 μM, reliable IC50 could not be determined): 65.1%; IC50 [1]: > 25 µM; IC50 [2]: > 25 µM; LiTryR dimer at 25 μM (%) [2]: 61.4%
CC[C@H](C)[C@H](NC(=O)CNC(=O)[C@@H](NC(=O)[C@H](CO)NC(=O)[C@H](CCC(N)=O)NC(=O)[C@@H](NC(=O)[C@@H](NC(=O)[C@H](CCCCN)NC(=O)[C@@H]1CCCN1C(=O)CCNC(=O)Cc1ccccc1)[C@@H](C)CC)[C@@H](C)CC)C(C)C)C(N)=O [3a, Ph-CH2-CO-NH-(CH2)2-CO-NH-PKIIQSVGI-NH2]	20.6 ± 1.6	12.7 ± 1.1	
CC[C@H](C)[C@H](NC(=O)CNC(=O)[C@@H](NC(=O)[C@H](CO)NC(=O)[C@H](CCC(N)=O)NC(=O)[C@@H](NC(=O)[C@@H](NC(=O)[C@H](CCCCN)NC(=O)[C@@H]1CCCN1C(=O)COCCOCCNC(=O)Cc1ccc(-c2ccccc2)cc1)[C@@H](C)CC)[C@@H](C)CC)C(C)C)C(N)=O [1c, Biphenyl-CH2-CO-NH-(CH2)2-O-(CH2)2-O-CH2-CO-NH-PKIIQSVGI-NH2]	16.6 ± 3.8	22.9 ± 1.4	
CC[C@H](C)[C@H](NC(=O)CNC(=O)[C@@H](NC(=O)[C@H](CO)NC(=O)[C@H](CCC(N)=O)NC(=O)[C@@H](NC(=O)[C@@H](NC(=O)[C@H](CCCCN)NC(=O)[C@@H]1CCCN1C(=O)COCCOCCNCc1ccccc1)[C@@H](C)CC)[C@@H](C)CC)C(C)C)C(N)=O [compound 7, Ph-CH2-NH-(CH2)2-O-(CH2)2-O-CH2-CO-NH-PKIIQSVGI-NH2]	8.3 ± 1.4	12.6 ± 0.6	
CC[C@H](C)[C@H](NC(=O)CNC(=O)[C@@H](NC(=O)[C@H](CO)NC(=O)[C@H](CCC(N)=O)NC(=O)[C@@H](NC(=O)[C@@H](NC(=O)[C@H](CCCCN)NC(=O)[C@@H]1CCCN1C(=O)COCCNC(=O)Cc1ccccc1)[C@@H](C)CC)[C@@H](C)CC)C(C)C)C(N)=O [2a, Ph-CH2-CO-NH-(CH2)2-O-CH2-CO-NH-PKIIQSVGI-NH2]	22.3 ± 1.5	15 ± 0.6	
CC[C@H](C)[C@H](NC(=O)CNC(=O)[C@@H](NC(=O)[C@H](CO)NC(=O)[C@H](CCC(N)=O)NC(=O)[C@@H](NC(=O)[C@@H](NC(=O)[C@H](CCCCN)NC(=O)[C@@H]1CCCN1C(=O)Cc1ccccc1)[C@@H](C)CC)[C@@H](C)CC)C(C)C)C(N)=O [4a, Ph-CH2-CO-NH-PKIIQSVGI-NH2]	10.3 ± 1.8	11.4 ± 0.1	
